According to ChEMBL document CHEMBL4651402, “Screening of ~5500 FDA-approved drugs and clinical candidates for anti-SARS-CoV-2 activity” (2021):

System: SARS-CoV-2
Assay: microbe, parasite or virus in culture
Settings: Severe acute respiratory syndrome coronavirus 2, Vero C1008, 48 h

| SMILES | IC50 [µM] | IC50 (read-out: pIC50 (converted)) [µM] |
| --- | --- | --- |
| COC1(C)CCC2OC2(C)CCC2C1CC2(C)C (centres undefined) [2-METHOXY-5 (6)EPOXY-TETRAHYDROCARYOPHYLLENE] | > 20 | > 20 |
| COc1cc2c(cc1O)CC[C@@H]1[C@@H]2CC[C@]2(C)[C@@H](O)CC[C@@H]12 [2-METHOXYESTRADIOL] | > 20 | > 20 |
| Cc1[nH]c2ccccc2c1CN(C)C [2-METHYL GRAMINE] | > 20 | > 20 |
| O=C(O)c1ccccn1 [2-PICOLINIC ACID] | > 20 | > 20 |
| O=c1c(O)c(-c2ccccc2)oc2cc(O)ccc12 [3,7-DIHYDROXYFLAVONE] | > 20 | > 20 |
| CC1(C)CC2C1CCC1(C)OC2(C)CCC1O (centres undefined) [3,7-EPOXYCARYOPHYLLAN-6-OL] | > 20 | > 20 |
| CC(=O)c1cc2ccccc2oc1=O [3-ACETYLCOUMARIN] | > 20 | > 20 |
| Cn1c(=O)[nH]c(=O)c2[nH]cnc21 [3-METHYLXANTHINE] | > 20 | > 20 |
| CC1(C)CC23C(=O)CCC(O)C2(C)CCC13 (centres undefined) [3-NOR-3-OXOPANASINSAN-6-OL] | > 20 | > 20 |
| [N-]=[N+]=N[C@]1(CO)O[C@@H](n2ccc(N)nc2=O)[C@H](O)[C@@H]1O [4'-AZIDOCYTIDINE] | > 20 | > 20 |
| COc1ccc(C(=O)/C=C/c2ccccc2)cc1 [4'-METHOXYCHALCONE] | > 20 | > 20 |
| COc1ccc(-c2cc(=O)c3ccccc3o2)cc1 [4'-METHOXYFLAVONE] | > 20 | > 20 |
| N#CCCCSC(=N)N [4-ISOTHIOUREIDOBUTYRONITRILE] | > 20 | > 20 |
| Cc1cc(=O)oc2c(O)c(O)ccc12 [4-METHYLDAPHNETIN] | > 20 | > 20 |
| Cc1cc(=O)oc2cc(O)c(O)cc12 [4-METHYLESCULETIN] | > 20 | > 20 |
| Cc1cc(=O)oc2cc(O)cc(O)c12 [5,7-DIHYDROXY-4-METHYLCOUMARIN] | > 20 | > 20 |
| O=C(O)c1cc2cc(F)ccc2[nH]1 [5-FLUOROINDOLE-2-CARBOXYLIC ACID] | > 20 | > 20 |
| O=c1cc(-c2ccccc2)oc2cccc(O)c12 [5-HYDROXYFLAVONE] | > 20 | > 20 |
| COc1ccc(-c2cc(=O)c3cc(OC)ccc3o2)cc1 [6,4'-DIMETHOXYFLAVONE] | > 20 | > 20 |
| c1cnc2c(c1)CNC2 [6,7-DIHYDRO-5H-PYRROLO[3,4-B]PYRIDINE] | > 20 | > 20 |
| NC(=O)c1ccc(N)nc1 [6-AMINONICOTINAMIDE] | > 20 | > 20 |
| c1ccc(CNc2ncnc3[nH]cnc23)cc1 [6-BENZYLAMINOPURINE] | > 20 | > 20 |
| [N-]=[N+]=CC(=O)CC[C@H](N)C(=O)O [6-DIAZO-5-OXO-L-NORLEUCINE] | > 20 | > 20 |
| Nc1nc(OCc2ccccc2)c2nc[nH]c2n1 [6-O-BENZYLGUANINE] | > 20 | > 20 |
| O=c1cc(-c2ccccc2)oc2c(O)c(O)ccc12 [7,8-DIHYDROXYFLAVONE] | > 20 | > 20 |
| CCc1c2c(nc3ccc(O)cc13)-c1cc3c(c(=O)n1C2)COC(=O)[C@]3(O)CC [7-ETHYL-10-HYDROXYCAMPTOTHECIN] | > 20 | > 20 |

| SMILES | IC50 [µM] | IC50 (read-out: pIC50 (converted)) [µM] |
| --- | --- | --- |
| O=c1cc(-c2ccccc2)oc2cc(O)ccc12 [7-HYDROXYFLAVONE] | > 20 | > 20 |
| Cn1cnc2[nH]c(=O)[nH]c(=O)c21 [7-METHYLXANTHINE] | > 20 | > 20 |
| O=[N+]([O-])c1cccc2cn[nH]c12 [7-NITROINDAZOLE] | > 20 | > 20 |
| Cn1c(=O)c2nc(C3CCCC3)[nH]c2n(C)c1=O [8-CYCLOPENTYLTHEOPHYLLINE] | > 20 | > 20 |
| CC(C)(O)CC[C@@H](O)[C@](C)(O)[C@H]1CC[C@@]2(O)C3=CC(=O)[C@@H]4C[C@@H](O)[C@@H](O)C[C@]4(C)[C@H]3CC[C@]12C [20-HYDROXYECDYSONE] | > 20 | > 20 |
| C[C@@H](N)[C@@H](O)c1ccccc1 [(1S,2R)-PHENYLPROPANOLAMINE] | > 20 | > 20 |
| CC(C)=CCN1CC[C@]2(C)c3cc(O)ccc3C[C@H]1[C@H]2C [(+)-PENTAZOCINE] | > 20 | > 20 |
| N[C@H]1C[C@@H]1c1ccccc1 [(+)-TRANYLCYPROMINE] | > 20 | > 20 |
| N[C@H](CO)C(=O)O [(D)-SERINE] | > 20 | > 20 |
| O=C(O)[C@H]1CCCNC1 [(S)-NIPECOTIC ACID] | > 20 | > 20 |
| O[C@@H](c1cc(C(F)(F)F)nc2c(C(F)(F)F)cccc12)[C@H]1CCCCN1 [(S,R)-MEFLOQUINE] | > 20 | > 20 |
| CC(C)(O)CC(=O)O [.BETA.-HYDROXYISOVALERIC ACID] | > 20 | > 20 |
| Nc1nc(NC2CC2)c2ncn([C@H]3C=C[C@@H](CO)C3)c2n1 [ABACAVIR] | > 20 | > 20 |
| O=C(NCc1ccncc1)C12CC3CC(C1)CC(c1ccc(Cl)cc1)(C3)C2 [ABC-294640] | > 20 | > 20 |
| CN(C)Cc1c(C(=O)NCCOc2ccc(C(=O)NO)cc2)oc2ccccc12 [ABEXINOSTAT] | > 20 | > 20 |
| C[C@]12CC[C@H](O)CC1=CC[C@@H]1[C@@H]2CC[C@]2(C)C(c3cccnc3)=CC[C@@H]12 [ABIRATERONE] | > 20 | > 20 |
| C=CC(=O)Nc1cccc(Oc2nc(Nc3ccc(N4CCN(C)CC4)c(F)c3)nc3[nH]ccc23)c1 [ABIVERTINIB] | > 20 | > 20 |
| CCCc1c(OCCCCCOc2cc3c(cc2C(C)=O)CCC(C(=O)O)O3)ccc(C(C)=O)c1O (centres undefined) [ABLUKAST] | > 20 | > 20 |
| CCCS(=O)(=O)N[C@H]1C[C@@H](N(C)c2ncnc3[nH]ccc23)C1 [ABROCITINIB] | > 20 | > 20 |
| CN(C)CC[C@H](CSc1ccccc1)Nc1ccc(S(=O)(=O)NC(=O)c2ccc(N3CCN(Cc4ccccc4-c4ccc(Cl)cc4)CC3)cc2)cc1[N+](=O)[O-] [ABT 737] | > 20 | > 20 |
| c1ccc(N2CCN(Cc3nc4ccccc4[nH]3)CC2)nc1 [ABT-724] | > 20 | > 20 |
| COc1ccc(S(=O)(=O)Nc2cccnc2Nc2ccc(O)cc2)cc1 [ABT-751] | > 20 | > 20 |
| Cc1c(NC(=O)OC[C@@H]2COCCN2)cn2ncnc(Nc3ccc4c(cnn4Cc4cccc(F)c4)c3)c12 [AC-480] | > 20 | > 20 |
| COc1ccc(-c2cc(=O)c3c(O)cc(O)cc3o2)cc1 [ACACETIN] | > 20 | > 20 |
| NC(=O)c1ncn([C@@H]2O[C@H](CO)[C@@H](O)[C@H]2O)c1N [ACADESINE] | > 20 | > 20 |
| CCCC(=O)Nc1ccc(OCC(O)CNC(C)C)c(C(C)=O)c1 (centres undefined) [ACEBUTOLOL] | > 20 | > 20 |

| SMILES | IC50 [µM] | IC50 (read-out: pIC50 (converted)) [µM] |
| --- | --- | --- |
| CCN(CC)CCNC(=O)c1ccc(NC(C)=O)cc1 [ACECAINIDE] | > 20 | > 20 |
| CC(=O)OC1CN2CCC1CC2 (centres undefined) [ACECLIDINE] | > 20 | > 20 |
| O=C(O)COC(=O)Cc1ccccc1Nc1c(Cl)cccc1Cl [ACECLOFENAC] | > 20 | > 20 |
| CC(=O)Nc1ccc(S(=O)(=O)c2ccc(NC(C)=O)cc2)cc1 [ACEDAPSONE] | > 20 | > 20 |
| Nc1ccc(S(=O)(=O)c2ccc(NCC(=O)O)cc2)cc1 [ACEDIASULFONE] | > 20 | > 20 |
| CC(=O)Nc1ccc(C(=O)O)cc1 [ACEDOBEN] | > 20 | > 20 |
| Cn1c(=O)c2c(ncn2CC(=O)O)n(C)c1=O [ACEFYLLINE] | > 20 | > 20 |
| CC(=O)NC(CCC(=O)O)C(=O)O (centres undefined) [ACEGLUMATE] | > 20 | > 20 |
| COc1ccc2c(c1)c(CC(=O)OCC(=O)O)c(C)n2C(=O)c1ccc(Cl)cc1 [ACEMETACIN] | > 20 | > 20 |
| CC(=O)CC(c1ccc([N+](=O)[O-])cc1)c1c(O)c2ccccc2oc1=O (centres undefined) [ACENOCOUMAROL] | > 20 | > 20 |
| CC(=O)Nc1ccc(O)cc1 [ACETAMINOPHEN] | > 20 | > 20 |
| CC(=O)Nc1ccccc1 [ACETANILIDE] | > 20 | > 20 |
| CC(=O)Nc1nnc(S(N)(=O)=O)s1 [ACETAZOLAMIDE] | > 20 | > 20 |
| CC(=O)c1ccc(S(=O)(=O)NC(=O)NC2CCCCC2)cc1 [ACETOHEXAMIDE] | > 20 | > 20 |
| CC(=O)NO [ACETOHYDROXAMIC ACID] | > 20 | > 20 |
| CC(=O)Oc1cc(C)c(OC(C)=O)c2ccccc12 [ACETOMENAPHTHONE] | > 20 | > 20 |
| CC(=O)Nc1c(I)cc(I)c(C(=O)O)c1I [ACETRIZOIC ACID] | > 20 | > 20 |
| CC(=O)N[C@@H](Cc1ccc(O)cc1)C(=O)O [ACETYL TYROSINE] | > 20 | > 20 |
| CC(=O)OCC[N+](C)(C)C [ACETYLCHOLINE] | > 20 | > 20 |
| CC(=O)N[C@@H](CS)C(=O)O [ACETYLCYSTEINE] | > 20 | > 20 |
| CC(=O)N[C@@H](Cc1c[nH]c2ccccc12)C(N)=O [ACETYLTRYPTOPHANAMIDE] | > 20 | > 20 |
| CC(=O)NCCCCCC(=O)O [ACEXAMIC ACID] | > 20 | > 20 |
| Cc1cnc(C(=O)O)c[n+]1[O-] [ACIPIMOX] | > 20 | > 20 |
| COc1cc(C)c(/C=C/C(C)=C/C=C/C(C)=C/C(=O)O)c(C)c1C [ACITRETIN] | > 20 | > 20 |
| CC(=O)OC(C)C(=O)OCC[N+](C)(C)C (centres undefined) [ACLATONIUM] | > 20 | > 20 |
